Key:
Assay type in all cases: cell-based
IRAK4 [1] = biological target: T1, IRAK4 (Homo sapiens, UniProt Q9NWZ3); assay: THP-1 degradation assay (western blot, % IRAK4 degraded after 24 hours); design: endogenous in cells; conditions: THP-1 cells
T1 sequence (Q9NWZ3 1-460): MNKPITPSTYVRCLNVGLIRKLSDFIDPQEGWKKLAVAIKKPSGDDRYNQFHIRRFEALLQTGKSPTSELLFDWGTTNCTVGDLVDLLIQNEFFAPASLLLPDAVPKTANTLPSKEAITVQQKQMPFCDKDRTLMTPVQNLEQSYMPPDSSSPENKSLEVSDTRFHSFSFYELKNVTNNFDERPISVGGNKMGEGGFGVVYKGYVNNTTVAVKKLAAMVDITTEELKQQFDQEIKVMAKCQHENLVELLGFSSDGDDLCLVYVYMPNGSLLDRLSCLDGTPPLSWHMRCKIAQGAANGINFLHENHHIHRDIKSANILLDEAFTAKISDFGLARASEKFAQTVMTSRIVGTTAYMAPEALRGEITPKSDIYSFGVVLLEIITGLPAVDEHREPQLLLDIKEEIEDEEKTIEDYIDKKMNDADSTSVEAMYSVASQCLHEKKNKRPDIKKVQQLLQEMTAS
Procedure: Compounds were reconstituted in DMSO to make stock solutions at concentration of 60 mM. THP-1 and OCI-LY10 cells were maintained in RPMI-1640 medium containing 10% FBS, 0.5 μM 2-ME or 20% FBS, 55 μM 2-ME, and 1% L-Glutamine respectively.
Cells were seeded into 6-well plates with 5e6 cells per well. 200 μL of diluted compounds were added to cells to the final concentration of 0.003-10 μM. After 4 or 24 hour-incubation at 37° C., cells were collected into 2 mL Eppendorf tubes and centrifuged at 1,000 rpm for 5 min. The cell pellets were washed with 1×DPBS once and resuspended in 60 μL lysis buffer. The cells were lysed on ice for 10 min, then centrifuged at 14,000 rpm for 10 min at 4° C. and the supernatants were collected for western blots. For THP-1 cells, the lysis buffer contained 40 mM pH 7.4 HEPES, 140 mM NaCl, 2.5 mM EDTA, 1% NP-40, 0.1% SDS, and protease inhibitor cocktail (Roche, Cat. No. 05892791001). For OCI-LY10 cells, RIPAbuffer (Thermo Fisher, 89900) with Halt Protease and Phosphatase Inhibitor Cocktail (Thermo Fisher, 78446) was applied.
The protein concentration of cell lysates was quantified with Pierce™ BCA Protein Assay Kit (Pierce, 23227). Albumin standards at different concentrations were prepared, involving 2,000 ug/mL, 1,500 ug/mL, 1,000 ug/mL, 750 ug/mL, 500 ug/mL, 250 ug/mL, 125 ug/mL, and 25 ug/mL. BCA working reagents were prepared by mixing BCA reagent A with reagent B in 50:1 ratio. 200 μL of the BCA working reagents were added to 25 μL of BCA standard or cell lysates in microplate, and mixed thoroughly on a plate shaker for 30 seconds. After incubation at 37° C. for 30 min, the absorbance of samples at 562 nm were measured with EnVision Plate Reader.
Protein lysates were prepared in NuPAGE™ LDS sample buffer and NuPAGE™ sample reducing agent, and incubated at 95° C. for 5 min. For western blots, 20-25 μg of total proteins were resolved in 4-12% Bis-Tris gels (Introgen, WG1403A) or 10% Bis-Tris Midi gels (Invitrogen, WG1202BOX) running with 1×MOPS SDS running buffer (Invitrogen, NP0001) or 1×MES SDS running buffer (Invitrogen, NP0002). The proteins were transferred to low fluorescence PVDF membranes using the Trans-Blot Turbo Transfer System. Membranes were then blocked in Odyssey blocking buffer at RT for 1 h followed by primary incubation at 4° C. overnight. The primary antibodies were IRAK1 rabbit monoclonal antibody (CST, #4504S, 1:500), IRAK3 rabbit polyclonal antibody (CST, #4369, 1:500), IRAK4 rabbit polyclonal antibody (CST, #4363S, 1:1,000), MyD88 rabbit monoclonal antibody (Abcam, Ab133739, 1:2,000), j3-actin mouse monoclonal antibody (Sigma, A5441, 10,000), and Gapdh mouse monoclonal antibody (Millipore, MAB374, 1:5,000). Membranes were washed three times with 1×TBST, and then incubated with IR Dye 800 CW Goat anti-rabbit (Licor, #926-32211) and IR Dye 700 CW Goat anti-mouse (Licor, #926-68070) secondary antibodies in 1:10,000 dilution at RT for 1 h. The western blot images were obtained using Odyssey Imaging System.
THP-1 results at 24 hours. The letter codes indicate the percentage of IRAK4 degraded after 24 hours: A (>50% degradation), B (>20-50% degradation) and C (<20% degradation)

IRAK4 [2] = biological target: T1, IRAK4; assay: OCI-LY-10 MSD assay for IRAK4 DC50; design: endogenous in cells; host or cells: OCI-LY10; conditions: OCI-LY10 cells, 4 hr incubation, concentration required to degrade 50% of protein
In short: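 OCI-Ly10 cells were exposed to compound for 4 hr across a 3-fold, 8-point dilution series. Lysates were made in RIPA buffer, and IRAK4 remaining was measured by MSD sandwich immunoassay with anti-IRAK4 capture and detection antibodies. DC50 was taken from a four-parameter logistic fit.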

OCI-LY10 cells = assay: OCI-LY-10 CTG cell viability assay (EC50); conditions: Homo sapiens, 96 h, CellTiter-Glo cell viability, 4 days incubation, top concentration 10 μM, read-out: OCI-LY10 IRAK4 EC50
In short: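 OCI-LY10 cells were exposed to a 9-dose, 1:3 series (top 10 μM, 0.2% DMSO) for 4 days at 37 °C. Viability was measured by CellTiter-Glo luminescence, and EC50 came from a three-parameter logistic fit.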

O=C(COc1cccc2c1C(=O)N(C1CCC(=O)NC1=O)C2=O)NCCCCCOCCOCCOCCCCCNC(=O)[C@H]1CC[C@H](NC(=O)c2cnc(Nc3ccc4cnccc4n3)cc2NC2CC2)CC1 (stereo partly drawn) [I-1, 6-((1,6-naphthyridin-2-yl)amino)-4-(cyclopropylamino)-N-((1R,4R)-4-((1-((2-(2,6-dioxopiperidin-3-yl)-1,3-dioxoisoindolin-4-yl)oxy)-2-oxo-9,12,15-trioxa-3-azaicosan-20-yl)carbamoyl)cyclohexyl)nicotinamide]
THP-1 24 h % IRAK4 Degradation (IRAK4 [1]): B (>20-50% degradation)

O=C(COc1cccc2c1C(=O)N(C1CCC(=O)NC1=O)C2=O)NCCOCCOCCOCCNC(=O)[C@H]1CC[C@H](NC(=O)c2cnc(Nc3ccc4cnccc4n3)cc2NC2CC2)CC1 (stereo partly shown) [I-2]
THP-1 24 h % IRAK4 Degradation (IRAK4 [1]): C (<20% degradation)

O=C(COc1cccc2c1C(=O)N(C1CCC(=O)NC1=O)C2=O)NCCCCCOCCCCCNC(=O)[C@H]1CC[C@H](NC(=O)c2cnc(Nc3ccc4cnccc4n3)cc2NC2CC2)CC1 (stereo partly shown) [I-3]
THP-1 24 h % IRAK4 Degradation (IRAK4 [1]): C (<20% degradation)

O=C(COc1cccc2c1C(=O)N(C1CCC(=O)NC1=O)C2=O)NCCCCCNC(=O)[C@H]1CC[C@H](NC(=O)c2cnc(Nc3ccc4cnccc4n3)cc2NC2CC2)CC1 (stereo partly shown) [I-4]
THP-1 24 h % IRAK4 Degradation (IRAK4 [1]): A (>50% degradation)

O=C(COc1cccc2c1C(=O)N(C1CCC(=O)NC1=O)C2=O)NCCCCCOCCOCCCCCNC(=O)[C@H]1CC[C@H](NC(=O)c2cnc(Nc3ccc4cnccc4n3)cc2NC2CC2)CC1 (stereo partly shown) [I-5]
THP-1 24 h % IRAK4 Degradation (IRAK4 [1]): B (>20-50% degradation)

O=C(COc1cccc2c1C(=O)N(C1CCC(=O)NC1=O)C2=O)NCCOCCNC(=O)[C@H]1CC[C@H](NC(=O)c2cnc(Nc3ccc4cnccc4n3)cc2NC2CC2)CC1 (stereo partly shown) [I-6]
THP-1 24 h % IRAK4 Degradation (IRAK4 [1]): B (>20-50% degradation)

O=C(COc1cccc2c1C(=O)N(C1CCC(=O)NC1=O)C2=O)NCCCNC(=O)[C@H]1CC[C@H](NC(=O)c2cnc(Nc3ccc4cnccc4n3)cc2NC2CC2)CC1 (stereo partly shown) [I-7]
THP-1 24 h % IRAK4 Degradation (IRAK4 [1]): B (>20-50% degradation)

O=C(COc1cccc2c1C(=O)N(C1CCC(=O)NC1=O)C2=O)NCCNC(=O)[C@H]1CC[C@H](NC(=O)c2cnc(Nc3ccc4cnccc4n3)cc2NC2CC2)CC1 (stereo partly shown) [I-8]
THP-1 24 h % IRAK4 Degradation (IRAK4 [1]): C (<20% degradation)

Cc1ncsc1-c1ccc(CNC(=O)[C@@H]2C[C@@H](O)CN2C(=O)[C@H](NC(=O)CCCCCCNC(=O)[C@H]2CC[C@H](NC(=O)c3cnc(Nc4ccc5cnccc5n4)cc3NC3CC3)CC2)C(C)(C)C)cc1 [I-10, 6-((1,6-naphthyridin-2-yl)amino)-4-(cyclopropylamino)-N-((1S,4r)-4-((7-(((S)-1-((2S,4R)-4-hydroxy-2-((4-(4-methylthiazol-5-yl)benzyl)carbamoyl)-pyrrolidin-1-yl)-3,3-dimethyl-1-oxobutan-2-yl)amino)-7-oxoheptyl)carbamoyl)cyclohexyl)-nicotinamide]
THP-1 24 h % IRAK4 Degradation (IRAK4 [1]): C (<20% degradation)

O=C1CCC(N2C(=O)c3cccc(NCCOCCOCCOCCOCCNC(=O)[C@H]4CC[C@H](NC(=O)c5cnc(Nc6ccc7cnccc7n6)cc5NC5CC5)CC4)c3C2=O)C(=O)N1 (stereo partly shown) [I-11]
THP-1 24 h % IRAK4 Degradation (IRAK4 [1]): C (<20% degradation)

Cc1ncsc1-c1ccc(CNC(=O)[C@@H]2C[C@@H](O)CN2C(=O)[C@H](NC(=O)CCCCCCCCCCCNC(=O)[C@H]2CC[C@H](NC(=O)c3cnc(Nc4ccc5cnccc5n4)cc3NC3CC3)CC2)C(C)(C)C)cc1 [I-12]
THP-1 24 h % IRAK4 Degradation (IRAK4 [1]): C (<20% degradation)

Cc1ncsc1-c1ccc(CNC(=O)[C@@H]2C[C@@H](O)CN2C(=O)C(NC(=O)COCCOCCOCCOCCNC(=O)[C@H]2CC[C@H](NC(=O)c3cnc(Nc4ccc5cnccc5n4)cc3NC3CC3)CC2)C(C)(C)C)cc1 (stereo partly shown) [I-13]
THP-1 24 h % IRAK4 Degradation (IRAK4 [1]): C (<20% degradation)

Cc1ncsc1-c1ccc(CNC(=O)[C@@H]2C[C@@H](O)CN2C(=O)[C@H](NC(=O)CCCCCOCCCCCCCNC(=O)[C@H]2CC[C@H](NC(=O)c3cnc(Nc4ccc5cnccc5n4)cc3NC3CC3)CC2)C(C)(C)C)cc1 [I-14]
THP-1 24 h % IRAK4 Degradation (IRAK4 [1]): C (<20% degradation)

CN[C@@H](C)C(=O)N[C@H](C(=O)N1Cc2cc(OCCOCCOCCOCCOCCNCc3nn(C)cc3NC(=O)c3coc(-c4ccnc(NCC(F)(F)F)c4)n3)ccc2C[C@H]1C(=O)N[C@@H]1CCCc2ccccc21)C(C)(C)C [I-682]
DC50 (IRAK4 [2]): > 1000 nM
EC50 (OCI-LY10 cells): > 1000 nM

Cn1c(=O)n(C2CCC(=O)NC2=O)c2ccc(CNCCOCCNCc3ccc(-n4cc(NC(=O)c5coc(-c6ccnc(NCC7CC7)c6)n5)c(C(F)F)n4)cc3)cc21 (stereo not shown) [I-684, 2-[2-(cyclopropylmethylamino)-4-pyridyl]-N-[3-(difluoromethyl)-1-[4-[[2-[2-[[1-(2,6-dioxo-3-piperidyl)-3-methyl-2-oxo-benzimidazol-5-yl]methylamino]ethoxy]ethylamino]methyl]phenyl]pyrazol-4-yl]oxazole-4-carboxamide]
DC50 (IRAK4 [2]): < 50 nM
EC50 (OCI-LY10 cells): < 50 nM

Cn1c(=O)n(C2CCC(=O)NC2=O)c2ccc(N3CCN(CCOCCNCc4ccc(-n5cc(NC(=O)c6coc(-c7ccnc(NCC8CC8)c7)n6)c(C(F)F)n5)cc4)CC3)cc21 (stereo not shown) [I-685]
DC50 (IRAK4 [2]): < 50 nM
EC50 (OCI-LY10 cells): < 50 nM

Cn1c(=O)n([C@@H]2CCC(=O)NC2=O)c2cccc(CCCOCCOCCNCc3ccc(-n4cc(NC(=O)c5coc(-c6ccnc(NCC(F)(F)F)c6)n5)c(C(N)=O)n4)cc3)c21 [I-689]
DC50 (IRAK4 [2]): < 50 nM
EC50 (OCI-LY10 cells): 500 to 1000 nM

Cn1c(=O)n([C@H]2CCC(=O)NC2=O)c2cccc(CCCOCCOCCNCc3ccc(-n4cc(NC(=O)c5coc(-c6ccnc(NCC(F)(F)F)c6)n5)c(C(N)=O)n4)cc3)c21 [I-690, N-[3-carbamoyl-1-[4-[[2-[2-[3-[(1S)-1-(2,6-dioxo-3-piperidyl)-3-methyl-2-oxo-benzimidazol-4-yl]propoxy]ethoxy]ethylamino]methyl]phenyl]pyrazol-4-yl]-2-[2-(2,2,2-trifluoroethylamino)-4-pyridyl]oxazole-4-carboxamide]
DC50 (IRAK4 [2]): < 50 nM
EC50 (OCI-LY10 cells): > 1000 nM

Cn1ncc2nc(Nc3cnn(CCOCCOCCNc4cccc5c4C(=O)N(C4CCC(=O)NC4=O)C5=O)c3)nc(NC3CCC(N4CCOCC4)CC3)c21 (stereo not shown) [I-692]
DC50 (IRAK4 [2]): > 1000 nM
EC50 (OCI-LY10 cells): > 1000 nM

Reference: patent US10874743B2, “IRAK degraders and uses thereof” (Kymera Therapeutics, Inc., priority 2017, dated 2020)
